In PubChem BioAssay (NCI):
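How tested: cells in 96-well plates exposed to compound for 48 hours at five concentrations. TGI is the concentration that stops growth completely.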

Legend:
Test in all cases: NCI anticancer screen, dose series, 48 h
[1] = system: A498 renal
[2] = system: HCT-116 colon
[3] = system: CCRF-CEM leukemia
[4] = system: MCF7 breast
[5] = system: HOP-92 NSCLC
[6] = system: HCC-2998 colon
[7] = system: RPMI-8226 leukemia
[8] = system: ACHN renal
[9] = system: SK-MEL-28 melanoma
[10] = system: COLO 205 colon
[11] = system: MDA-MB-231 breast
[12] = system: SNB-19 CNS
[13] = system: OVCAR-8 ovarian
[14] = system: SF-539 CNS
[15] = system: PC-3 prostate
[16] = system: MDA-N
[17] = system: SF-295 CNS
[18] = system: CAKI-1 renal
[19] = system: SR leukemia
[20] = system: KM12 colon
[21] = system: SN12C renal
[22] = system: OVCAR-5 ovarian
[23] = system: U251 CNS
[24] = system: DU-145 prostate
[25] = system: MALME-3M melanoma
[26] = system: NCI/ADR-RES ovarian
[27] = system: LOX IMVI melanoma
[28] = system: NCI-H460 lung
[29] = system: T-47D breast
[30] = system: MOLT-4 leukemia
[31] = system: NCI-H226 lung
[32] = system: NCI-H522 lung
[33] = system: A549 NSCLC
[34] = system: IGROV1 ovarian
[35] = system: BT-549 breast
[36] = system: HOP-62 NSCLC
[37] = system: UACC-257 melanoma
[38] = system: EKVX NSCLC
[39] = system: M14 melanoma
[40] = system: SK-OV-3 ovarian
[41] = system: SF-268 CNS
[42] = system: 786-0 renal
[43] = system: HT29 colon
[44] = system: MDA-MB-435
[45] = system: UACC-62 melanoma
[46] = system: HCT-15 colon
[47] = system: HS 578T breast
[48] = system: HL-60(TB) leukemia
[49] = system: UO-31 renal
[50] = system: NCI-H23 lung
[51] = system: SK-MEL-2 melanoma
[52] = system: SNB-75 CNS
[53] = system: RXF 393 renal
[54] = system: SW-620 colon
[55] = system: OVCAR-3 ovarian
[56] = system: K-562 leukemia
[57] = system: SK-MEL-5 melanoma
[58] = system: TK-10 renal
[59] = system: OVCAR-4 ovarian

Measured: TGI

CN(C)c1ccc(/C=C(\NC(=O)c2ccccc2)C(=O)Nc2ccccc2C(=O)O)cc1
not listed: [58] | [59]
> 100 µM: all other assays above

C#CCOC(=O)C(N)CSSCC(N)C(=O)O (stereo unspecified)
not listed: [17] | [40] | [43] | [55] | [56]
> 100 µM: all other assays above
